Experimental findings from patent US20080220065A1, “Compositions for treating foot odor and methods of use thereof” (priority 2007, published 2008) are described below.

Data set [1] has as its system foot odor. Description: efficacy duration study, twenty-six persons, right vs left footwear, olfactory evaluation. The note with it: for olfactory evaluation of footwear and feet: three days following administration. In kind it is in vivo, human. How it is done:
Thereafter, to test the efficacy duration of the preferred mixture and concentration of the present invention, a study was conducted of twenty-six persons, male and female, ranging in ages from 7-71 years, all presenting with foul and distressing foot odor. These twenty-six persons had all of their “right-side” footwear treated with 1-1.25 g of cupric carbonate and their “left-side” footwear with 1-1.25 g sodium bicarbonate. Three days following administration, each shoe worn and both feet of each participant were evaluated via olfactory sense. Evaluation results were the same, without exception, for all participants.

The test system of data set [2] is foot odor. Kind of data set: initial empirical use studies in footwear. An excerpt: Initial empirical use studies involved finely divided elemental copper powder.
The test system of data set [3] is foot odor. Description: dosing specification study, organoleptic odor evaluation, six volunteers. In kind it is in vivo, human. The conditions noted are these: for organoleptic odor evaluation: after three, 10 and 30 days. How it is done: Dosing specification studies were conducted in order to define a preferred minimum quantity for preferred use; although mindful of the differences in performance, more or less than the preferred minimum quantity could be utilized in alternate compositions. Initial test dosing was approximately 3.5 to 4.0 grams dispersed within each shoe, with excess bumped out through the footwear opening.
In the study, six volunteer participants with confirmed and self-recognized foot odor participated in trials to establish preferred upper and lower specification ranges. […] The left shoes were treated in a variable fashion, from an initial 3.5 gram dose to a final dose of 0.5 grams, via 0.5 gram increments. An organoleptic evaluation was performed by each test subject, and also be the inventor, after three days, 10 days, and 30 days of treatment for each dose.

Data set [4] has as its system ubiquitous microbial cultures collected from common household and mammalian sources. Description: filter disc incubation with streak-inoculated microbial cultures. In kind it is cell-based. The note with it: filter discs impregnated by aqueous saturation, incubated with the cultures. How it is done:
Initial comparative studies were conducted in an effort to validate the antimicrobial activities of cupric compounds, wherein ubiquitous microbial cultures were collected from common household and mammalian sources and isolated in identifiable colonies by streak inoculation.

In the case of `O=C([O-])O.[Na+]` [sodium bicarbonate, reference compound], the “olfactory evaluation of footwear and feet” value in the data set with foot odor [1] (1-1.25 g per shoe) is recorded as “no obvious change in degree of unpleasant odor”.
As to cupric chloride, the contact dermatitis result in the data set with foot odor [2] (use in footwear) is “varying degrees of contact dermatitis”.
Take cupric carbonate, CuCO3.Cu(OH)2: the “efficacy against foot odor in earlier testing” value in the data set on foot odor [3] (4.0 gram dosing, positive control, right shoe) is reported as “shown the efficacy”. The organoleptic odor evaluation entry in the data set with foot odor [3] (dosed at or above 1.5 grams per shoe) is “no detectable trace of odor beyond that of damp footwear”; in the data set with foot odor [3] (dosed at or below 1.0 gram per shoe), “some malodorous relief, but for a more limited period of time”. In the data set with foot odor [1] (1-1.25 g per shoe), the “olfactory evaluation of footwear and feet” value was “no detectable hint of unpleasantness”. In the data set on foot odor [1] (1-1.25 g per shoe, in many cases twelve months or more), the duration of effectiveness result is given as “at least six”. In addition, the effectiveness in the data set with foot odor [1] (for at least six months) is ~100%. The antimicrobial properties entry in data set [4] is on record as “confirming the existence of antimicrobial properties”. Besides, in the data set on foot odor [2] (in vivo), the contact dermatitis result is “contact dermatitis was completely eliminated”.
Consider `CC(=O)[O-].CC(=O)[O-].[Cu+2]` [acetate solution, cupric acetate], for which the antimicrobial properties entry in data set [4] is listed as “confirming the existence of antimicrobial properties”.
